# From patent publication US12077503B2, “Substituted cyclic amides and their use as herbicides” (FMC CORPORATION, priority 2015, dated 2024)
# Columns and labels:
# Format in all cases: in vivo
# [1] = tested on: pigweed (Amaranthus retroflexus); assay: Test A postemergence; settings: postemergence
# In short: (§1)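 Visual injury, scored on a 0–100 scale relative to untreated controls, was recorded about 10 d after application. Treatments were a preemergence soil spray over planted seeds or a postemergence spray on plants at the one- to two-leaf stage, 2 to 10 cm tall, all in loam soil–sand blend in the greenhouse.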
# [2] = tested on: morningglory (Ipomoea spp.); assay: Test A postemergence; settings: 1000 g ai/ha, postemergence; 0 to 100 scale, 0 no effect, 100 complete control
# In short: as §1
# [3] = tested on: barnyardgrass (Echinochloa crus-galli); assay: Test A postemergence; settings: postemergence
# In short: as §1
# [4] = tested on: giant foxtail (Setaria faberii); assay: Test A postemergence; settings: postemergence
# In short: as §1
# [5] = tested on: wheat (Triticum aestivum); assay: Test A postemergence; settings: postemergence
# In short: as §1
# [6] = tested on: crabgrass, large (Digitaria sanguinalis); assay: Test A postemergence; settings: 1000 g ai/ha, postemergence; 0 to 100 scale, 0 no effect, 100 complete control
# In short: as §1
# [7] = tested on: velvetleaf (Abutilon theophrasti); assay: Test A postemergence; settings: 1000 g ai/ha, postemergence; 0 to 100 scale, 0 no effect, 100 complete control
# In short: as §1
# corn (Zea mays) [8] = assay: Test A postemergence; settings: postemergence
# In short: as §1
# [9] = tested on: pigweed (Amaranthus retroflexus); assay: Test A preemergence; settings: for Pigweed plant response rating (0 to 100 scale): 1000 g ai/ha, 0 is no effect, 100 is complete control
# [10] = tested on: morningglory (Ipomoea spp.); assay: Test A preemergence; settings: Preemergence, 1000 g ai/ha; 0 is no effect, 100 is complete control
# In short: as §1
# [11] = tested on: barnyardgrass (Echinochloa crus-galli); assay: Test A preemergence; settings: for Barnyardgrass plant response rating (0 to 100 scale): 1000 g ai/ha, 0 is no effect, 100 is complete control
# In short: as §1
# [12] = tested on: giant foxtail (Setaria faberii); assay: Test A preemergence; settings: for Foxtail, Giant plant response rating (0 to 100 scale): 1000 g ai/ha, 0 is no effect, 100 is complete control
# In short: as §1
# [13] = tested on: wheat (Triticum aestivum); assay: Test A preemergence; settings: Preemergence, 1000 g ai/ha; 0 is no effect, 100 is complete control
# In short: as §1
# [14] = tested on: crabgrass, large (Digitaria sanguinalis); assay: Test A preemergence; settings: Preemergence, 1000 g ai/ha; 0 is no effect, 100 is complete control
# In short: as §1
# [15] = tested on: velvetleaf (Abutilon theophrasti); assay: Test A preemergence; settings: Preemergence, 1000 g ai/ha; 0 is no effect, 100 is complete control
# In short: as §1
# corn (Zea mays) [16] = assay: Test A preemergence; settings: Preemergence, 1000 g ai/ha; 0 is no effect, 100 is complete control
# In short: as §1
# [17] = tested on: ragweed (common ragweed, Ambrosia elatior); assay: Test A postemergence; settings: postemergence, 0 to 100 scale (0 no effect, 100 complete control)
# In short: as §1
# Kochia (Kochia scoparia) [18] = assay: Test A postemergence; settings: postemergence, 0 to 100 scale (0 no effect, 100 complete control)
# In short: as §1
# [19] = tested on: blackgrass (Alopecurus myosuroides); assay: Test A postemergence; settings: postemergence, 0 to 100 scale (0 no effect, 100 complete control)
# In short: as §1
# [20] = tested on: ryegrass, Italian (Italian ryegrass, Lolium multiflorum); assay: Test A postemergence; settings: postemergence, 0 to 100 scale (0 no effect, 100 complete control)
# In short: as §1
# [21] = tested on: Galium (catchweed bedstraw, Galium aparine); assay: Test A postemergence; settings: postemergence, 0 to 100 scale (0 no effect, 100 complete control)
# In short: as §1
# [22] = tested on: sedge, umbrella (small-flower umbrella sedge, Cyperus difformis); assay: Test C flooded paddy test; settings: Flood; for Plant response rating (scale of 0 to 100), Sedge, Umbrella: 0 is no effect, 100 is complete control
# In short: (§2)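 Scores express visual response relative to untreated controls, 0 meaning no effect and 100 complete control, assessed 13 to 15 d after treatment in the greenhouse. Compound went into water flooded 3 cm above soil around 2-leaf plants.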
# rice (Oryza sativa) = assay: Test C flooded paddy test; settings: Flood; for Plant response rating (scale of 0 to 100), Rice: 0 is no effect, 100 is complete control
# In short: as §2
# [23] = tested on: barnyardgrass (Echinochloa crus-galli); assay: Test C flooded paddy test; settings: Flood; for Plant response rating (scale of 0 to 100), Barnyardgrass: 0 is no effect, 100 is complete control
# In short: as §2
# [24] = tested on: ducksalad (Heteranthera limosa); assay: Test C flooded paddy test; settings: Flood; for Plant response rating (scale of 0 to 100), Ducksalad: 0 is no effect, 100 is complete control
# In short: as §2
# [25] = tested on: ragweed (common ragweed, Ambrosia elatior); assay: Test A preemergence
# In short: as §1
# Kochia (Kochia scoparia) [26] = assay: Test A preemergence
# In short: as §1
# [27] = tested on: ryegrass, Italian (Italian ryegrass, Lolium multiflorum); assay: Test A preemergence
# In short: as §1
# [28] = tested on: sedge, umbrella (small-flower umbrella sedge, Cyperus difformis); assay: Test B flooded paddy test; settings: Flood, 250 g ai/ha; 0 to 100 scale where 0 is no effect and 100 is complete control; 13 to 15 d
# In short: (§3)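 Visual ratings (0 none to 100 complete control) are relative to untreated plants, taken 13–15 d after treatment in a greenhouse. Test material went straight into floodwater standing 3 cm above the soil, kept constant, on plants at the 2-leaf stage.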
# rice (Oryra sativa) = assay: Test B flooded paddy test; settings: Flood, 250 g ai/ha; 0 to 100 scale where 0 is no effect and 100 is complete control; 13 to 15 d
# In short: as §3
# [29] = tested on: barnyardgrass (Echinochloa crus-galli); assay: Test B flooded paddy test; settings: Flood, 250 g ai/ha; 0 to 100 scale where 0 is no effect and 100 is complete control; 13 to 15 d
# In short: as §3
# [30] = tested on: ducksalad (Heteranthera limosa); assay: Test B flooded paddy test; settings: Flood, 250 g ai/ha; 0 to 100 scale where 0 is no effect and 100 is complete control; 13 to 15 d
# In short: as §3
# [31] = 1000 g ai/ha, 0 to 100 scale, 0 no effect, 100 complete control
# [32] = 125 g ai/ha, visual rating after approx. 10 d
# [33] = 500 g ai/ha, visual injury, approx. 10 d
# [34] = 125 g ai/ha, visual rating after approx. 10 d, 0 to 100 scale (0 no effect, 100 complete control)
# [35] = 500 g ai/ha, visual injury, 0 to 100 scale (0 no effect, 100 complete control), approx. 10 d
# [36] = 31 g ai/ha, scale 0 to 100 (0 no effect, 100 complete control), 13 to 15 d
# [37] = 125 g ai/ha, Preemergence, visual injury after approximately 10 d, 0 to 100 scale where 0 is no effect and 100 is complete control
# [38] = 500 g ai/ha, preemergence, 0 to 100 scale, 0 = no effect, 100 = complete control
structure (smiles),measurement,setting,value
Nc1c(NC(=O)C2C(=O)NCC2c2ccc(F)c(F)c2)cccc1[N+](=O)[O-] (racemic) [Compound 357],"Plant response rating, Pigweed",[1]; [31],0
same,"Plant response rating, Morningglory",[2],0
same,"Plant response rating, Barnyardgrass",[3]; [31],0
same,"Plant response rating, Foxtail, Giant",[4]; [31],0
same,"Plant response rating, Wheat",[5]; [31],0
same,"Plant response rating, Crabgrass, Large",[6],0
same,"Plant response rating, Velvetleaf",[7],0
same,"Plant response rating, Corn",corn (Zea mays) [8]; [31],0
same,Pigweed plant response rating (0 to 100 scale),[9]; Preemergence,0
same,Morningglory plant response rating (0 to 100 scale),[10],0
same,Barnyardgrass plant response rating (0 to 100 scale),[11]; Preemergence,0
same,"Foxtail, Giant plant response rating (0 to 100 scale)",[12]; Preemergence,0
same,Wheat plant response rating (0 to 100 scale),[13],0
same,"Crabgrass, Large plant response rating (0 to 100 scale)",[14],0
same,Velvetleaf plant response rating (0 to 100 scale),[15],0
same,Corn plant response rating (0 to 100 scale),corn (Zea mays) [16],0
Cc1cccc(NC(=O)C2C(=O)NCC2c2ccc(F)c(F)c2)c1N (racemic) [Compound 355],"Plant response rating, Pigweed",[1]; [31],0
same,"Plant response rating, Morningglory",[2],0
same,"Plant response rating, Barnyardgrass",[3]; [31],0
same,"Plant response rating, Foxtail, Giant",[4]; [31],0
same,"Plant response rating, Wheat",[5]; [31],0
same,"Plant response rating, Crabgrass, Large",[6],0
same,"Plant response rating, Velvetleaf",[7],0
same,"Plant response rating, Corn",corn (Zea mays) [8]; [31],0
same,Pigweed plant response rating (0 to 100 scale),[9]; Preemergence,0
same,Morningglory plant response rating (0 to 100 scale),[10],0
same,Barnyardgrass plant response rating (0 to 100 scale),[11]; Preemergence,0
same,"Foxtail, Giant plant response rating (0 to 100 scale)",[12]; Preemergence,0
same,Wheat plant response rating (0 to 100 scale),[13],0
same,"Crabgrass, Large plant response rating (0 to 100 scale)",[14],0
same,Velvetleaf plant response rating (0 to 100 scale),[15],0
same,Corn plant response rating (0 to 100 scale),corn (Zea mays) [16],0
CC(C)Oc1cccc(C2CN(C)C(=O)C2C(=O)Nc2ccccc2F)c1 (stereo not drawn) [Compound 650],"Plant response rating, Ragweed",[17]; [32],0
same,"Plant response rating, Ragweed",[17]; [33],30
same,"Plant response rating, Pigweed",[1]; [34],0
same,"Plant response rating, Pigweed",[1]; [35],0
same,"Plant response rating, Kochia",Kochia (Kochia scoparia) [18]; [32],0
same,"Plant response rating, Kochia",Kochia (Kochia scoparia) [18]; [33],40
same,"Plant response rating, Blackgrass",[19]; [32],50
same,"Plant response rating, Blackgrass",[19]; [33],50
same,"Plant response rating, Ryegrass, Italian",[20]; [32],60
same,"Plant response rating, Ryegrass, Italian",[20]; [33],70
same,"Plant response rating, Barnyardgrass",[3]; [34],90
same,"Plant response rating, Barnyardgrass",[3]; [35],90
same,"Plant response rating, Foxtail, Giant",[4]; [34],90
same,"Plant response rating, Foxtail, Giant",[4]; [35],90
same,"Plant response rating, Wheat",[5]; [34],30
same,"Plant response rating, Wheat",[5]; [35],70
same,"Plant response rating, Galium",[21]; [32],50
same,"Plant response rating, Galium",[21]; [33],70
same,"Plant response rating, Corn",corn (Zea mays) [8]; [34],40
same,"Plant response rating, Corn",corn (Zea mays) [8]; [35],90
same,"Plant response rating, Sedge, Umbrella",[22]; [36],0
same,"Plant response rating (scale of 0 to 100), Sedge, Umbrella",[22]; 62 g ai/ha,0
same,"Plant response rating (scale of 0 to 100), Sedge, Umbrella",[22]; 125 g ai/ha,0
same,"Plant response rating (scale of 0 to 100), Sedge, Umbrella",[22]; 250 g ai/ha,0
same,"Plant response rating, Rice",rice (Oryza sativa); [36],0
same,"Plant response rating (scale of 0 to 100), Rice",rice (Oryza sativa); 62 g ai/ha,0
same,"Plant response rating (scale of 0 to 100), Rice",rice (Oryza sativa); 125 g ai/ha,0
same,"Plant response rating (scale of 0 to 100), Rice",rice (Oryza sativa); 250 g ai/ha,0
same,"Plant response rating, Barnyardgrass",[23]; [36],20
same,"Plant response rating (scale of 0 to 100), Barnyardgrass",[23]; 62 g ai/ha,20
same,"Plant response rating (scale of 0 to 100), Barnyardgrass",[23]; 125 g ai/ha,60
same,"Plant response rating (scale of 0 to 100), Barnyardgrass",[23]; 250 g ai/ha,75
same,"Plant response rating, Ducksalad",[24]; [36],60
same,"Plant response rating (scale of 0 to 100), Ducksalad",[24]; 62 g ai/ha,70
same,"Plant response rating (scale of 0 to 100), Ducksalad",[24]; 125 g ai/ha,90
same,"Plant response rating (scale of 0 to 100), Ducksalad",[24]; 250 g ai/ha,95
same,"Plant response rating, Ragweed",[25]; [37],0
same,"Plant response rating, Ragweed",[25]; [38],80
same,"Plant response rating, Pigweed",[9]; [37],50
same,"Plant response rating, Pigweed",[9]; [38],90
same,"Plant response rating, Kochia",Kochia (Kochia scoparia) [26]; [37],30
same,"Plant response rating, Kochia",Kochia (Kochia scoparia) [26]; [38],70
same,"Plant response rating, Ryegrass, Italian",[27]; [37],40
same,"Plant response rating, Ryegrass, Italian",[27]; [38],90
same,"Plant response rating, Barnyardgrass",[11]; [37],100
same,"Plant response rating, Barnyardgrass",[11]; [38],100
same,"Plant response rating, Foxtail, Giant",[12]; [37],100
same,"Plant response rating, Foxtail, Giant",[12]; [38],100
same,"Plant response rating, Sedge, Umbrella",[28],0
same,"Plant response rating, Rice",rice (Oryra sativa),0
same,"Plant response rating, Barnyardgrass",[29],80
same,"Plant response rating, Ducksalad",[30],100
